Results taken from ChEMBL document CHEMBL1140570, “Synthesis and antimicrobial evaluation of guanylsulfonamides” (2007).
In brackets after ≈: the same amount, converted by molar mass. Activity calls are given as the source filed them. The rule behind the calls is not given here.

How the values were obtained:
[1] = tested on: Aspergillus niger; experiment: Antifungal activity against Aspergillus niger NCIM 590 at 64 ug/mL by serial dilution method; assay type: functional, organism-based
[2] = tested on: Staphylococcus aureus; experiment: Antibacterial activity against Staphylococcus aureus ATCC 25923 by serial dilution method; assay type: functional
[3] = tested on: Escherichia coli; experiment: Antibacterial activity against Escherichia coli ATCC 25922 at 64 ug/mL by serial dilution method; assay type: functional, organism-based
[4] = tested on: Candida albicans; experiment: Antifungal activity against Candida albicans NCIM C27 at 64 ug/mL by serial dilution method; assay type: functional, organism-based
[5] = tested on: Bacillus subtilis; experiment: Antibacterial activity against Bacillus subtilis ATCC 6033 at 64 ug/mL by serial dilution method; assay type: functional, organism-based
[6] = tested on: Enterococcus faecalis; experiment: Antibacterial activity against Streptococcus faecalis ATCC 29212 by serial dilution method; assay type: functional
[7] = tested on: Pseudomonas aeruginosa; experiment: Antibacterial activity against Pseudomonas aeruginosa ATCC 27853 by serial dilution method; assay type: functional
[8] = tested on: Aspergillus flavus; experiment: Antifungal activity against Aspergillus flavus NCIM 539 at 64 ug/mL by serial dilution method; assay type: functional, organism-based
[9] = tested on: Klebsiella pneumoniae; experiment: Antibacterial activity against Klebsiella pneumoniae ATCC 13883 at 64 ug/mL by serial dilution method; assay type: functional, organism-based
[10] = tested on: Escherichia coli; experiment: Antibacterial activity against Escherichia coli ATCC 25922 by serial dilution method; assay type: functional
[11] = tested on: Aspergillus flavus; experiment: Antifungal activity against Aspergillus flavus NCIM 539 by serial dilution method; assay type: functional
[12] = tested on: Aspergillus niger; experiment: Antifungal activity against Aspergillus niger NCIM 590 by serial dilution method; assay type: functional
[13] = tested on: Klebsiella pneumoniae; experiment: Antibacterial activity against Klebsiella pneumoniae ATCC 13883 by serial dilution method; assay type: functional
[14] = tested on: Bacillus subtilis; experiment: Antibacterial activity against Bacillus subtilis ATCC 6033 by serial dilution method; assay type: functional
[15] = tested on: Candida albicans; experiment: Antifungal activity against Candida albicans NCIM C27 by serial dilution method; assay type: functional

| Structure (SMILES) | Activity [1] | MIC [2] | Activity [3] | Activity [4] | Activity [5] | MIC [6] | MIC [7] | Activity [8] | Activity [9] | MIC [10] | MIC [11] | MIC [12] | MIC [13] | MIC [14] | MIC [15] |
| --- | --- | --- | --- | --- | --- | --- | --- | --- | --- | --- | --- | --- | --- | --- | --- |
| Nc1nc2c(ncn2-c2ccc(S(=O)(=O)N3CCCCC3)cc2)c(=O)[nH]1 | inactive | 64 µg/mL (≈ 171 µM) | inactive | inactive | inactive | 64 µg/mL (≈ 171 µM) | 64 µg/mL (≈ 171 µM) | inactive | inactive | – | – | – | – | – | – |
| Nc1nc2c(ncn2-c2ccc(S(=O)(=O)N3CCCCC3)cc2Cl)c(=O)[nH]1 | – | 4 µg/mL (≈ 9.78 µM) | – | – | – | 4 µg/mL (≈ 9.78 µM) | 8 µg/mL (≈ 19.6 µM) | – | – | 16 µg/mL (≈ 39.1 µM) | 64 µg/mL (≈ 157 µM) | 64 µg/mL (≈ 157 µM) | 16 µg/mL (≈ 39.1 µM) | 32 µg/mL (≈ 78.3 µM) | 64 µg/mL (≈ 157 µM) |
| Nc1nc2c(ncn2-c2ccc(S(=O)(=O)N3CCCCC3)cc2F)c(=O)[nH]1 | inactive | 32 µg/mL (≈ 81.5 µM) | – | inactive | – | 16 µg/mL (≈ 40.8 µM) | 64 µg/mL (≈ 163 µM) | inactive | – | 64 µg/mL (≈ 163 µM) | – | – | 32 µg/mL (≈ 81.5 µM) | 32 µg/mL (≈ 81.5 µM) | – |
| CC1CCN(S(=O)(=O)c2ccc(-n3cnc4c(=O)[nH]c(N)nc43)cc2)CC1 | inactive | 64 µg/mL (≈ 165 µM) | inactive | inactive | inactive | 64 µg/mL (≈ 165 µM) | 64 µg/mL (≈ 165 µM) | inactive | inactive | – | – | – | – | 64 µg/mL (≈ 165 µM) | – |
| CC1CCN(S(=O)(=O)c2ccc(-n3cnc4c(=O)[nH]c(N)nc43)c(Cl)c2)CC1 | – | 4 µg/mL (≈ 9.46 µM) | – | – | – | 8 µg/mL (≈ 18.9 µM) | 16 µg/mL (≈ 37.8 µM) | – | – | 16 µg/mL (≈ 37.8 µM) | 32 µg/mL (≈ 75.7 µM) | 32 µg/mL (≈ 75.7 µM) | 16 µg/mL (≈ 37.8 µM) | 32 µg/mL (≈ 75.7 µM) | 64 µg/mL (≈ 151 µM) |
| CCn1cc(C(=O)O)c(=O)c2cc(F)c(N3CCNCC3)cc21 [NORFLOXACIN] | – | 8 µg/mL (≈ 25.1 µM) | – | – | – | 8 µg/mL (≈ 25.1 µM) | 8 µg/mL (≈ 25.1 µM) | – | – | 16 µg/mL (≈ 50.1 µM) | – | – | 16 µg/mL (≈ 50.1 µM) | 32 µg/mL (≈ 100 µM) | – |
| COc1cc(S(=O)(=O)N2CCCCC2)ccc1-n1cnc2c(=O)[nH]c(N)nc21 | – | 64 µg/mL (≈ 158 µM) | – | – | – | 64 µg/mL (≈ 158 µM) | 64 µg/mL (≈ 158 µM) | – | – | 32 µg/mL (≈ 79.1 µM) | 16 µg/mL (≈ 39.6 µM) | 16 µg/mL (≈ 39.6 µM) | 32 µg/mL (≈ 79.1 µM) | 16 µg/mL (≈ 39.6 µM) | 32 µg/mL (≈ 79.1 µM) |
| COc1cc(S(=O)(=O)N2CCC(C)CC2)ccc1-n1cnc2c(=O)[nH]c(N)nc21 | – | 32 µg/mL (≈ 76.5 µM) | – | – | – | 32 µg/mL (≈ 76.5 µM) | 64 µg/mL (≈ 153 µM) | – | – | 16 µg/mL (≈ 38.2 µM) | 16 µg/mL (≈ 38.2 µM) | 32 µg/mL (≈ 76.5 µM) | 32 µg/mL (≈ 76.5 µM) | 16 µg/mL (≈ 38.2 µM) | 32 µg/mL (≈ 76.5 µM) |
| CC1CCN(S(=O)(=O)c2ccc(-n3cnc4c(=O)[nH]c(N)nc43)c(F)c2)CC1 | – | 32 µg/mL (≈ 78.7 µM) | – | – | – | 32 µg/mL (≈ 78.7 µM) | 64 µg/mL (≈ 157 µM) | – | – | 32 µg/mL (≈ 78.7 µM) | 64 µg/mL (≈ 157 µM) | 32 µg/mL (≈ 78.7 µM) | 32 µg/mL (≈ 78.7 µM) | 64 µg/mL (≈ 157 µM) | 64 µg/mL (≈ 157 µM) |
